According to patent US5990146A, “Benzimidazoles for inhibiting protein tyrosine kinase mediated cellular proliferation” (Warner-Lambert Company, priority 1998, dated 1999):
Where a name gives a salt, the structure may show the parent alone.

How the values were obtained:
Assay type in all cases: biochemical
[1] = target: T1, PDGF receptor tyrosine kinase (mouse PDGF-β) (Mus musculus, UniProt P05622); assay: PDGFr tyrosine kinase assay (poly glutamate-tyrosine phosphorylation); conditions: Table 1; 10 minutes at 25° C.
T1 construct: PCR primers are designed to amplify a fragment of DNA that codes for the intracellular tyrosine kinase domain; made in house; host or cells: Sf9 insect cells (baculovirus), cell lysate
Experimental: Platelet Derived Growth Factor Receptor (PDGFr) and Fibroblast Growth Factor Receptor (FGFr)
Full length cDNAs for the mouse PDGF-β and human FGF-1 (flg) receptor tyrosine kinases were obtained from J. Escobedo and are prepared as described in J. Biol. Chem., 262: 1482-1487 (1991). PCR primers are designed to amplify a fragment of DNA that codes for the intracellular tyrosine kinase domain. The fragment is melded into a baculovirus vector, cotransfected with AcMNPV DNA, and the recombinant virus isolated. SF9 insect cells are infected with the virus to overexpress the protein, and the cell lysate is used for the assay.
The assay is performed in 96-well plates (100 μL/incubation/well), and conditions are optimized to measure the incorporation of ^32 p from [γ^32 P]-ATP into a glutamate-tyrosine copolymer substrate. Briefly, to each well is added 82.5 μL of incubation buffer containing 25 mM Hepes (pH 7.0), 150 mM NaCl, 0.1% Triton X-100, 0.2 mM PMSF, 0.2 mM sodium vanadate, 10 mM manganese chloride, and 750 μg/mL of poly (4:1) glutamate-tyrosine followed by 2.5 μL of inhibitor and 5 μL of enzyme lysate (7.5 μg/μL FGFR-TK or 6.0 μg/μL PDGFR-TK) to initiate the reaction. Following a 10 minute incubation at 25° C., 10 μL of [γ^32 P]-ATP (0.4 μCi plus 50 μM ATP) is added to each well and samples are incubated for an additional 10 minutes at 25° C. The reaction is terminated by the addition of 100 μL of 30% trichloroacetic acid (TCA) containing 20 mM sodium pyrophosphate and precipitation of material onto glass fiber filter mats (Wallac). Filters are washed 3 times with 15% TCA containing 100 mM sodium pyrophosphate and the radioactivity retained on the filters counted in a Wallac 1250 Betaplate reader. Nonspecific activity is defined as radioactivity retained on the filters following incubation of samples with buffer alone (no enzyme). Specific enzymatic activity is defined as total activity (enzyme plus buffer) minus nonspecific activity.

insulin receptor (INSr) = target: T2, insulin receptor (INSr) (Homo sapiens, UniProt P06213); assay: Insulin receptor kinase assay; conditions: Table 1; as for EGF receptor with 10 mM manganese chloride
T2 construct: An assay using the intracellular kinase domains of insulin receptor (INSr) is performed

c-Src = target: T3, c-Src (Homo sapiens, UniProt P12931); assay: c-Src kinase assay; conditions: Table 1; 5 μM ATP, room temperature, 10 minutes
T3 construct: made in house; host or cells: baculovirus infected insect cells
Experimental: c-Src kinase is purified from baculovirus infected insect cell lysates using an antipeptide monoclonal antibody directed against the N-terminal 2-17 amino acids as described previously by Fry, et al, Anticancer Drug Design. 9: 331-351 (1994). […] At the end of the lysate incubation, the beads are rinsed 3 times in lysis buffer, resuspended in lysis buffer containing 10% glycerol, and frozen. These latex beads are thawed, rinsed 3 times in assay buffer which is comprised of 40 mM tris pH 7.5, 5 mM magnesium chloride, and suspended in the same buffer. […] The reaction is started at room temperature by addition of the ATP and quenched 10 minutes later by the addition of 125 μL of 30% TCA, 0.1 M sodium pyrophosphate for 15 minutes on ice. The plate is then filtered and the wells washed with two 250-μL aliquots of 15% TCA, 0.1 M pyrophosphate. The filters are punched, counted in a liquid scintillation counter, and the data examined for inhibitory activity in comparison to a known inhibitor such as erbstatin. The method is described more fully in J. Med. Chem., 37: 598-609 (1994).

[2] = target: T4, FGF receptor tyrosine kinase (human FGF-1 (flg)) (Homo sapiens, UniProt P11362); assay: FGFr tyrosine kinase assay (poly glutamate-tyrosine phosphorylation); conditions: Table 1; 10 minutes at 25° C.
T4 construct: PCR primers are designed to amplify a fragment of DNA that codes for the intracellular tyrosine kinase domain; made in house; host or cells: Sf9 insect cells (baculovirus), cell lysate
Experimental: Platelet Derived Growth Factor Receptor (PDGFr) and Fibroblast Growth Factor Receptor (FGFr) Full length cDNAs for the mouse PDGF-β and human FGF-1 (flg) receptor tyrosine kinases were obtained from J. Escobedo and are prepared as described in J. Biol. Chem., 262: 1482-1487 (1991). PCR primers are designed to amplify a fragment of DNA that codes for the intracellular tyrosine kinase domain. The fragment is […] into a baculovirus vector, cotransfected with AcMNPV DNA, and the recombinant virus isolated. SF9 insect cells are infected with the virus to overexpress the protein, and the cell lysate is used for the […] and FGFr The assay is performed in 96-well plates (100 μL/incubation/well), and conditions are optimized to measure the incorporation of ^32 p from [γ^32 P]-ATP into a glutamate-tyrosine copolymer substrate. […] The reaction is terminated by the addition of 100 μL of 30% trichloroacetic acid (TCA) containing 20 mM sodium pyrophosphate and precipitation of material onto glass fiber filter mats (Wallac). Filters are washed 3 times with 15% TCA containing 100 mM sodium pyrophosphate and the radioactivity retained on the filters counted in a Wallac 1250 Betaplate reader. Nonspecific activity is defined as radioactivity retained on the filters following incubation of samples with buffer alone (no enzyme). Specific enzymatic activity is defined as total activity (enzyme plus buffer) minus nonspecific activity.

T1 sequence (P05622 599-961 limits assumed): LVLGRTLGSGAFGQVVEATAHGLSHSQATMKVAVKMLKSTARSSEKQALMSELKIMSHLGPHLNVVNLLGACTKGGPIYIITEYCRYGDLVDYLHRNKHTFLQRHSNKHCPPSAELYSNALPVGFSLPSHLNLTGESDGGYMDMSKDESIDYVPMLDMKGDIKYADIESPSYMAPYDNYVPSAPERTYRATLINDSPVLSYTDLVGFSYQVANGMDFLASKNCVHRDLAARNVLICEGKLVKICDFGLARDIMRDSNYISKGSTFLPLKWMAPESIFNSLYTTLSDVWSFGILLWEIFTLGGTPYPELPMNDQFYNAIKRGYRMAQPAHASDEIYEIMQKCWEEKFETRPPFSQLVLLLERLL
T2 sequence (P06213 1023-1298 limits assumed, species assumed): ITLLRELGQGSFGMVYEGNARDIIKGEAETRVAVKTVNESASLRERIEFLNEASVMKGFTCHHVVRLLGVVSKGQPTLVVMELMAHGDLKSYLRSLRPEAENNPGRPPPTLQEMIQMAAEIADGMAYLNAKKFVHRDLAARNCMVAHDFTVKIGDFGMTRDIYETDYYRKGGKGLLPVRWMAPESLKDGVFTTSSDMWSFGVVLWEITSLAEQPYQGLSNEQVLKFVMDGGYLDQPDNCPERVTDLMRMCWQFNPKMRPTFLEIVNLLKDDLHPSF
T3 sequence (P12931 whole entry, species assumed): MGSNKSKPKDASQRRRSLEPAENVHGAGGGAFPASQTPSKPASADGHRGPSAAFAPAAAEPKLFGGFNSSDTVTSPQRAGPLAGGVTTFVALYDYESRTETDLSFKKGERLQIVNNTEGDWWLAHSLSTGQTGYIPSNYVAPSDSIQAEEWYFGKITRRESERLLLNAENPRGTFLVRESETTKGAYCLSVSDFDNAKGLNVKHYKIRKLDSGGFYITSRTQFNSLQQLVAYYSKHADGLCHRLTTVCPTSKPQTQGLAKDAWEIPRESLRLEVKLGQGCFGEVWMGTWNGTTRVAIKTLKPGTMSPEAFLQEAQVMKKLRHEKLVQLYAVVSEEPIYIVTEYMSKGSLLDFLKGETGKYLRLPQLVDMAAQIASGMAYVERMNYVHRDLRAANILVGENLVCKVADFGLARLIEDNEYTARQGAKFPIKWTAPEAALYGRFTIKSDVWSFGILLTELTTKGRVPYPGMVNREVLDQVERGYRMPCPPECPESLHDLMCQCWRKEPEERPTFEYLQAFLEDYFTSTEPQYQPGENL
T4 sequence (P11362 478-767 limits assumed): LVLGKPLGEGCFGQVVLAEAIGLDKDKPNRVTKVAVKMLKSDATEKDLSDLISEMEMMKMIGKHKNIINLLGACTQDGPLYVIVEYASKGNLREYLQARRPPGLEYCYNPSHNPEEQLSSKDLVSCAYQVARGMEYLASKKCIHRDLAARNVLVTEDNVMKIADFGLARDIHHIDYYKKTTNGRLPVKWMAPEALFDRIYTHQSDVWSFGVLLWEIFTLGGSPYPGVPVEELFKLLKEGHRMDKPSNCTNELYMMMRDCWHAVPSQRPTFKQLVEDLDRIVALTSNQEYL

IC50 [1]	IC50 (insulin receptor (INSr))	IC50 (c-Src)	IC50 [2]	SMILES
3.8 µM	> 50 µM	> 50 µM	50 µM	Oc1cccc(-n2cnc3ccccc32)c1 [Example 2, 1-(3-Hydroxyphenyl)benzimidazole Hydrochloride]
6.8 µM	> 50 µM	> 50 µM	> 50 µM	O=Cc1cccc(-n2cnc3ccccc32)c1 [Example 4, 1-(3-Formylphenyl)benzimidazole Hydrochloride]
1.8 µM	> 50 µM	> 50 µM	5.8 µM	Oc1ccc(-n2cnc3ccccc32)cc1 [Example 6, 1-(4-Hydroxyphenyl)benzimidazole Hydrochloride]
13.5 µM	–	> 50 µM	–	O=Cc1ccc(-n2cnc3ccccc32)cc1 [Example 9, 1-(4-Formylphenyl)benzimidazole]
12.3 µM	> 50 µM	> 50 µM	50 µM	c1ccc2c(c1)ncn2-c1ccncc1 [Example 10, 1-(4-Pyridinyl)benzimidazole dihydrochloride]
4 µM	–	–	51 µM	Clc1ccc2c(c1)ncn2-c1ccccc1 [Example 15, 5-Chloro-1-phenylbenzimidazole]
0.9 µM	–	–	14 µM	CC(=O)c1ccc2c(c1)ncn2-c1ccccc1 [Example 20, 5-Acetyl-1-phenylbenzimidazole]
2.4 µM	> 50 µM	> 50 µM	41 µM	CCC(=O)Nc1ccc2c(c1)ncn2-c1ccccc1 [Example 24, 5-Propionamido-1-phenylbenzimidazole Hydrochloride]
5.3 µM	–	> 50 µM	37 µM	C=CC(=O)Nc1ccc2c(c1)ncn2-c1ccccc1 [Example 25, 5-Acrylamido-1-phenylbenzimidazole]
0.2 µM	> 50 µM	–	26 µM	CCOc1ccc2c(c1)ncn2-c1ccccc1 [Example 28, 5-Ethoxy-1-phenylbenzimidazole Hydrochloride]
0.3 µM	–	–	15 µM	OCC(O)COc1ccc2c(c1)ncn2-c1ccccc1 (stereo not drawn) [Example 33, 5-(2,3-Dihydroxypropoxy)-1-phenylbenzimidazole Hydrochloride]
5.4 µM	–	–	–	Clc1ccc2ncn(-c3ccccc3)c2c1 [Example 42, 6-Chloro-1-phenylbenzimidazole]
9.6 µM	–	–	> 50 µM	CCOc1ccc2ncn(-c3ccccc3)c2c1 [Example 44, 6-Ethoxy-1-phenylbenzimidazole]
–	> 50 µM	40 µM	25 µM	COc1cc2ncn(-c3ccccc3)c2cc1OC [Example 46, 5,6-Dimethoxy-1-phenylbenzimidazole Hydrochloride]
–	> 50 µM	–	–	Cc1cc2c(cc1O)ncn2-c1ccccc1 [Example 50, 5-Hydroxy-6-methyl-1-phenylbenzimidazole Hydrochloride]
–	–	–	22 µM	O=C(O)c1cc2c(cc1O)ncn2-c1ccccc1 [Example 52, 5-Hydroxy-1-phenylbenzimidazole-6-carboxylic acid Hydrobromide]
0.7 µM	–	> 50 µM	6.5 µM	COc1ccc2c(c1)ncn2-c1ccsc1 [Example 56, 5-Methoxy-1-(3-thienyl)benzimidazole Hydrochloride]
–	–	> 50 µM	–	COc1ccc2c(ncn2-c2ccccc2)c1OC [Example 60, 4,5-Dimethoxy-1-phenylbenzimidazole Hydrochloride]
–	–	–	1.9 µM	Oc1ccc2c(ncn2-c2ccccc2)c1O [Example 61, 4,5-Dihydroxy-1-phenylbenzimidazole Hydrochloride]
< 50 µM	–	40 µM	–	COc1ccc2c(ncn2-c2ccccc2)c1O [Example 63, 4-Hydroxy-5-methoxy-1-phenylbenzimidazole Hydrochloride]

The remaining lines, values behind:

SMILES	IC50 [1]	IC50 (insulin receptor (INSr))	IC50 (c-Src)	IC50 [2]
c1ccc(-n2cnc3cc(OCC4CO4)ccc32)cc1 (racemic) [Example 34, 5-(2,3-Epoxypropoxy)-1-phenylbenzimidazole]	0.3 µM	–	–	–
COc1ccc(-n2cnc3ccccc32)cc1 [Example 5, 1-(4-Methoxyphenyl)benzimidazole Hydrochloride]	12 µM	> 50 µM	> 50 µM	–
c1ccc(-n2cnc3cnccc32)cc1 [Example 22, 1-Phenylimidazo-1H-imidazol[4,5-c]pyridine Hydrochloride]	10 µM	> 50 µM	> 50 µM	49 µM
CC(=O)Nc1ccc2c(c1)ncn2-c1ccccc1 [Example 23, 5-Acetamido-1-phenylbenzimidazole Hydrochloride]	3.3 µM	> 50 µM	< 50 µM	32 µM
CCCOc1ccc2c(c1)ncn2-c1ccccc1 [Example 29, 1-Phenyl-5-propoxybenzimidazole hydrochloride]	0.3 µM	> 50 µM	> 50 µM	35 µM
CC(C)Oc1ccc2c(c1)ncn2-c1ccccc1 [Example 30, 5-Isopropoxy-1-phenylbenzimidazole Hydrochloride]	< 50 µM	> 50 µM	–	–
CCCCOc1ccc2c(c1)ncn2-c1ccccc1 [Example 31, 5-Butoxy-1-phenylbenzimidazole Hydrochloride]	–	> 50 µM	–	–
Oc1cc2ncn(-c3ccccc3)c2cc1O [Example 47, 5,6-Dihydroxy-1-phenylbenzimidazole Hydrochloride]	2.3 µM	> 50 µM	–	11 µM
c1ccc(-n2cnc3cc4c(cc32)OCO4)cc1 [Example 48, 5,6-Methylenedioxy-1-phenylbenzimidazole Hydrochloride]	–	> 50 µM	–	27 µM
COc1cc2ncn(-c3ccccc3)c2cc1C [Example 49, 5-Methoxy-6-methyl-1-phenylbenzimidazole Hydrochloride]	–	> 50 µM	–	–
COc1cc2ncn(-c3ccccc3)c2cc1C=O [Example 54, 5-Methoxy-1-phenylbenzimidazole-6-carboxaldehyde Hydrochloride]	1.1 µM	> 50 µM	–	–
OCCCCOc1ccc2c(c1)ncn2-c1ccccc1 [Example 57, 5-(4-Hydroxybutoxy)-1-phenylbenzimidazole Hydrochloride]	0.5 µM	–	> 50 µM	25 µM
CN(C)CCCCOc1ccc2c(c1)ncn2-c1ccccc1 [Example 58, 5-[4-(N,N-Dimethylamino)butoxy]-1-phenylbenzimidazole Dihydrochloride]	0.2 µM	–	50 µM	6 µM
COc1c(O)ccc2c1ncn2-c1ccccc1 [Example 62, 5-Hydroxy-4-methoxy-1-phenylbenzimidazole Hydrochloride]	50 µM	–	–	50 µM
